From patent US9884828B2, “Substituted cinnolines as inhibitors of LRRK2 kinase activity” (Imago Pharmaceuticals, Inc., priority 2011, dated 2018)

Biological target: recombinant GST-LRRK2 (wild-type) (Homo sapiens (Human), UniProt Q5S007)
Assay: LRRK2 TR-FRET peptide assay (in vitro kinase activity), wild-type
Format: biochemical
Conditions: 100 μM ATP, 100 nM biotin-LRRKtide substrate, 10 nM kinase, 60 minutes at room temperature
Method: Compounds as described herein (compounds of Formula I, e.g., compounds of the above Examples) are tested for their in vitro kinase activities using various LRRK2 (including LRRK2 G2019S mutant) assays. […] Serially diluted compounds (1% DMSO as co-solvent) were pre-incubated with recombinant GST-LRRK2 (wild-type, or G2019S mutant, Invitrogen) for 15 minutes at room temperature in 384-well Corning black plates. […] The inhibition of each well was calculated using the control and background readings for that plate. IC50 values were determined from dose-response curves using eight concentrations from the serial dilution of the test compounds.

Sequence of recombinant GST-LRRK2 (wild-type) (Q5S007 whole entry): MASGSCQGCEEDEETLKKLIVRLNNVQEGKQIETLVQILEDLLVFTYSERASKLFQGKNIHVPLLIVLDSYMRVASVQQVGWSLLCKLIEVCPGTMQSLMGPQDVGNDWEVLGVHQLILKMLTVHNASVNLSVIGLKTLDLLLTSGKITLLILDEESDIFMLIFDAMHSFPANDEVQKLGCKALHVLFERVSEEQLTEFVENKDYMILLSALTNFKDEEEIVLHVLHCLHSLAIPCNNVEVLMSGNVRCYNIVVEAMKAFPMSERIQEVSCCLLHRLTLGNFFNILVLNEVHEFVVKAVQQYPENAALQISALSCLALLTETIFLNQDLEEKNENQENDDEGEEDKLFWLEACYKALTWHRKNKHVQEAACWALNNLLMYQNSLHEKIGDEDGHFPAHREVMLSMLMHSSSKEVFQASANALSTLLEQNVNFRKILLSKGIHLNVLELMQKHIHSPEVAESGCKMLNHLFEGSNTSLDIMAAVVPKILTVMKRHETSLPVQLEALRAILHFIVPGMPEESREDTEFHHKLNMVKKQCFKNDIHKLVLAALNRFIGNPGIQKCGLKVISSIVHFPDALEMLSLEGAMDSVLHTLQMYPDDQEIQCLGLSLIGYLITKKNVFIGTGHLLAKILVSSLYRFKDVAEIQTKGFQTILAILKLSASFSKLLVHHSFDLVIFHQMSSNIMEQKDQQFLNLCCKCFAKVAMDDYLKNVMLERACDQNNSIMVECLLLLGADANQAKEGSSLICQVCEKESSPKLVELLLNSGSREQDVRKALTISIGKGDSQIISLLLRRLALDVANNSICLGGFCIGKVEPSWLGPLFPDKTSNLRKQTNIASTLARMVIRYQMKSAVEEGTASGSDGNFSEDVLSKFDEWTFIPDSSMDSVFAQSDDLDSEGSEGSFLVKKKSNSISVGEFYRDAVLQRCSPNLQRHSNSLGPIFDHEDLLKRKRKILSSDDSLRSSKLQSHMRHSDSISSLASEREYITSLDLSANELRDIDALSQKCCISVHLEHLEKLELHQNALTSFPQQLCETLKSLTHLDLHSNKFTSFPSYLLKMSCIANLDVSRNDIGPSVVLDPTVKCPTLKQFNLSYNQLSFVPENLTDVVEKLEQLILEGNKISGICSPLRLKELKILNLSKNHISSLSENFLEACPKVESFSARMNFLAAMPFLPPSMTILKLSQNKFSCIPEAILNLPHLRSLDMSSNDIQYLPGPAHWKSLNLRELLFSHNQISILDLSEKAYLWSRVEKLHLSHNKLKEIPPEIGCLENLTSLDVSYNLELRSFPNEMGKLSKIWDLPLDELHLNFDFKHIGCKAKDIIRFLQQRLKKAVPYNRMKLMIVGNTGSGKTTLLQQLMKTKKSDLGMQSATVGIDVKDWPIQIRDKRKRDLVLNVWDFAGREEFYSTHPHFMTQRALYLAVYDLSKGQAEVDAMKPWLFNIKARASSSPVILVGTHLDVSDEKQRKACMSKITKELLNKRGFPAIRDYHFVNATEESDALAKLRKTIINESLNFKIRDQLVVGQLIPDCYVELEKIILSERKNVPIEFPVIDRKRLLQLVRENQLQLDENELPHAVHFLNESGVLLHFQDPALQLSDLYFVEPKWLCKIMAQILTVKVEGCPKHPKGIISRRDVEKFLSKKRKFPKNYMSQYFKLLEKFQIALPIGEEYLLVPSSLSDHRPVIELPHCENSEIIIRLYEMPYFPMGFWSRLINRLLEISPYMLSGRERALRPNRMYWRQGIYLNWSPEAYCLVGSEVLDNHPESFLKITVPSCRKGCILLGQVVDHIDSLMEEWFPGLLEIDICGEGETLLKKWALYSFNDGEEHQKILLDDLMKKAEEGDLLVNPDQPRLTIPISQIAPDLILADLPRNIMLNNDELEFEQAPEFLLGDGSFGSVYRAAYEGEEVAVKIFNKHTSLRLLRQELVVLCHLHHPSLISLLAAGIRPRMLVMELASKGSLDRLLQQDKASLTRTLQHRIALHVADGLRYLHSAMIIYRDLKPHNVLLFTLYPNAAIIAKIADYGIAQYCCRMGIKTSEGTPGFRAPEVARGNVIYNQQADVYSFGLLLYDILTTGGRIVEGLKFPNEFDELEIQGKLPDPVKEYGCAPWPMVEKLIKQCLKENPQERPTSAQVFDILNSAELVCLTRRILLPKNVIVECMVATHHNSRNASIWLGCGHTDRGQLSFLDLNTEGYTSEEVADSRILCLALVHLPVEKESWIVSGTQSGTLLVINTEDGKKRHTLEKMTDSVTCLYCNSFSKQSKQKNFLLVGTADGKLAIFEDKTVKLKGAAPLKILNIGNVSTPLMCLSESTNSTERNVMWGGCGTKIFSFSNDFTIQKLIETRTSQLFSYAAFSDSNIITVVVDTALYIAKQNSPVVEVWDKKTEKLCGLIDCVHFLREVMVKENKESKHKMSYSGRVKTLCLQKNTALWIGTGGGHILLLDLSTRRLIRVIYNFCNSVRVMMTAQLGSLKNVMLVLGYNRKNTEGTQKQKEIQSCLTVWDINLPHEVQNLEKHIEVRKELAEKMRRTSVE

Row | IC50 [nM] | Structure (SMILES)
1 | 990 | C#Cc1nnc2cc(-c3ccc(S(C)(=O)=O)cc3)ccc2c1NC(C)C [Compound 10-87, 3-ethynyl-N-isopropyl-7-(4-(methylsulfonyl)phenyl)cinnolin-4-amine]
2 | 280 | COc1ccc(-n2cccn2)cc1-c1ccc2c(N[C@H](C)C3CC3)c(C(N)=O)nnc2c1 [Compound 9-207, (R)-4-(1-cyclopropylethylamino)-7-(2-methoxy-5-(1H-pyrazol-1-yl)phenyl)cinnoline-3-carboxamide]
3 | 68 | COc1ccccc1Nc1ccc2c(NC(C)C)c(C(N)=O)nnc2c1 [Compound 4-189, 4-(isopropylamino)-7-(2-methoxyphenylamino)cinnoline-3-carboxamide]
4 | 21600 | Cc1nnc2cc(-c3ccc(S(C)(=O)=O)cc3)ccc2c1NC(C)C [Compound 6-83, N-isopropyl-3-methyl-7-(4-(methylsulfonyl)phenyl)cinnolin-4-amine]
5 | 490 | COc1cc(N2CCOCC2=O)ccc1-c1ccc(OC)c(-c2ccc3c(N[C@H](C)C4CC4)c(C(N)=O)nnc3c2)c1 [Compound 9-210, (R)-4-(1-cyclopropylethylamino)-7-(2′,4-dimethoxy-4′-(3-oxomorpholino)biphenyl-3-yl)cinnoline-3-carboxamide]
6 | 1100 | COc1cc(N2CCOC2=O)ccc1-c1ccc(OC)c(-c2ccc3c(N[C@H](C)C4CC4)c(C(N)=O)nnc3c2)c1 [Compound 9-208, (R)-4-(1-cyclopropylethylamino)-7-(2′,4-dimethoxy-4′-(2-oxooxazolidin-3-yl)biphenyl-3-yl)cinnoline-3-carboxamide]
7 | 72 | CC(C)Nc1c(C(N)=O)nnc2cc(Nc3ccccc3)ccc12 [Compound 4-78, 4-(isopropylamino)-7-(phenylamino)cinnoline-3-carboxamide]
8 | 170 | CNC(=O)c1nnc2cc(-c3ccc(S(C)(=O)=O)cc3)ccc2c1N[C@H](C)C1CC1 [Compound 12-231, (R)-4-(1-cyclopropylethylamino)-N-methyl-7-(4-(methylsulfonyl)phenyl)cinnoline-3-carboxamide]
9 | 1600 | C=C(C)c1ccc2c(N[C@H](C)C3CC3)c(C(=O)NC)nnc2c1 [Compound 14-235, (R)-4-(1-cyclopropylethylamino)-N-methyl-7-(prop-1-en-2-yl)cinnoline-3-carboxamide]
10 | 43 | COc1cc(-c2ncccc2F)ccc1-c1ccc2c(N[C@H](C)C3CC3)c(C(N)=O)nnc2c1 [Compound 11-218, (R)-4-(1-Cyclopropylethylamino)-7-(4-(3-fluoropyridin-2-yl)-2-methoxyphenyl)cinnoline-3-carboxamide]
11 | 1950 | CNC(=O)c1nnc2cc(C3CC3)ccc2c1N[C@H](C)C1CC1 [Compound 14-236, (R)-7-cyclopropyl-4-(1-cyclopropylethylamino)-N-methylcinnoline-3-carboxamide]
12 | 420 | CC(C)Nc1c(-c2nc[nH]n2)nnc2cc(-c3ccc(S(C)(=O)=O)cc3)ccc12 [Compound 8-200, N-Isopropyl-7-(4-(methylsulfonyl)phenyl)-3-(1H-1,2,4-triazol-3-yl)cinnolin-4-amine]
13 | 1300 | CC(C)Nc1c(C(N)=O)nnc2ccc(N3CCOCC3)cc12 [Compound 4-191, 4-(isopropylamino)-6-morpholinocinnoline-3-carboxamide]
14 | 490 | CC(C)Nc1c(C(N)=O)nnc2cc(Oc3ccccc3)ccc12 [Compound 4-74, 4-(isopropylamino)-7-phenoxycinnoline-3-carboxamide]

Continued, molecule first:

Row | Structure (SMILES) | IC50 [nM]
15 | CS(=O)(=O)c1ccc(-c2ccc3c(NC4CC4)c(C(N)=O)nnc3c2)cc1 [Compound 2-29, 4-(cyclopropylamino)-7-(4-(methylsulfonyl)phenyl)cinnoline-3-carboxamide] | 47
16 | COCc1ccccc1-c1ccc2c(N[C@H](C)C3CC3)c(C(N)=O)nnc2c1 [Compound 2-104, (R)-4-(1-cyclopropylethylamino)-7-(2-(methoxymethyl)phenyl)cinnoline-3-carboxamide] | 330
17 | CC(C)Nc1c(-c2ncco2)nnc2cc(-c3ccc(S(C)(=O)=O)cc3)ccc12 [Compound 3-71, N-isopropyl-7-(4-(methylsulfonyl)phenyl)-3-(oxazol-2-yl)cinnolin-4-amine] | > 100000
18 | CC(C)Nc1c(C(N)=O)nnc2ccc(-c3cnn(C)c3)cc12 [Compound 2-129, 4-(isopropylamino)-6-(1-methyl-1H-pyrazol-4-yl)cinnoline-3-carboxamide] | 380
19 | COc1ccc(Br)cc1-c1ccc2c(N[C@H](C)C3CC3)c(C(N)=O)nnc2c1 [Compound 2-109, (R)-7-(5-bromo-2-methoxyphenyl)-4-(1-cyclopropylethylamino)cinnoline-3-carboxamide] | 710
20 | COc1ccc(C(=O)N(C)C)cc1-c1ccc2c(N[C@H](C)C3CC3)c(C(N)=O)nnc2c1 [Compound 2-107, (R)-4-(1-cyclopropylethylamino)-7-(5-(dimethylcarbamoyl)-2-methoxyphenyl)cinnoline-3-carboxamide] | 48
21 | C[C@@H](Nc1c(C#N)nnc2cc(-c3ccc(S(C)(=O)=O)cc3)ccc12)C1CC1 [Compound 2-42, (R)-4-(1-cyclopropylethylamino)-7-(4-(methylsulfonyl)phenyl)cinnoline-3-carbonitrile] | 560
22 | CS(=O)(=O)c1ccc(-c2ccc3c(NCC4CCOCC4)c(C(N)=O)nnc3c2)cc1 [Compound 2-89, 7-(4-(methylsulfonyl)phenyl)-4-((tetrahydro-2H-pyran-4-yl)methylamino)cinnoline-3-carboxamide] | 110
23 | CS(=O)(=O)c1ccc(-c2ccc3c(NCC4CC4)c(C(N)=O)nnc3c2)cc1 [Compound 2-92] | 17
24 | CC(C)Nc1c(C(N)=O)nnc2ccc(-c3nccs3)cc12 [Compound 2-130, 4-(isopropylamino)-6-(thiazol-2-yl)cinnoline-3-carboxamide] | 570
25 | C[C@@H](Nc1c(C(N)=O)nnc2cc(-c3ccc(S(C)(=O)=O)cc3)ccc12)C1CCOCC1 [Compound 2-90, (R)-7-(4-(methylsulfonyl)phenyl)-4-(1-(tetrahydro-2H-pyran-4-yl)ethylamino)cinnoline-3-carboxamide] | 63
26 | COc1ccc(F)cc1-c1ccc2c(NC(C)C)c(C(N)=O)nnc2c1 [Compound 2-98, 7-(5-fluoro-2-methoxyphenyl)-4-(isopropylamino)cinnoline-3-carboxamide] | 590
27 | C[C@@H](Nc1c(C(N)=O)nnc2cc(-c3ccc(S(C)(=O)=O)cc3)ccc12)C1CC1 [Compound 2-41, (R)-4-(1-cyclopropylethylamino)-7-(4-(methylsulfonyl)phenyl)cinnoline-3-carboxamide] | < 6
28 | NC(=O)c1nnc2cc(-c3cccc(N4CCOCC4)c3)ccc2c1N [Compound 1-6, 4-amino-7-(3-morpholinophenyl)cinnoline-3-carboxamide] | 120
29 | CN(C)c1ccc(-c2ccc3c(N)c(C(N)=O)nnc3c2)cc1 [Compound 1-7, 4-amino-7-(4-(dimethylamino)phenyl)cinnoline-3-carboxamide] | 130
30 | CC[C@@H](C)Nc1c(C#N)nnc2cc(-c3ccc(S(C)(=O)=O)cc3)ccc12 [Compound 2-38, (R)-4-(sec-butylamino)-7-(4-(methylsulfonyl)phenyl)cinnoline-3-carbonitrile] | 550
31 | NC(=O)c1nnc2cc(-c3ccncc3)ccc2c1NCCCO [Compound 2-136, 4-(3-hydroxypropylamino)-7-(pyridin-4-yl)cinnoline-3-carboxamide] | 120
32 | C[C@@H](Nc1c(C(N)=O)nnc2cc(-c3ccccc3OC(F)(F)F)ccc12)C1CC1 [Compound 2-108, (R)-4-(1-cyclopropylethylamino)-7-(2-(trifluoromethoxy)phenyl)cinnoline-3-carboxamide] | 4300
33 | C[C@@H](Nc1c(C(N)=O)nnc2cc(-c3ccc(N4CCOCC4=O)cc3)ccc12)C1CC1 [Compound 2-116, (R)-4-(1-cyclopropylethylamino)-7-(4-(3-oxomorpholino)phenyl)cinnoline-3-carboxamide] | 10
34 | CC(C)Nc1c(C(N)=O)nnc2cc(-c3cn[nH]c3)ccc12 [Compound 2-53, 4-(isopropylamino)-7-(1H-pyrazol-4-yl)cinnoline-3-carboxamide] | 9
35 | C[C@@H](Nc1c(C(N)=O)nnc2cc(-c3ccc4c(c3)CC(=O)N4)ccc12)C1CC1 [Compound 2-106, (R)-4-(1-cyclopropylethylamino)-7-(2-oxoindolin-5-yl)cinnoline-3-carboxamide] | 11
36 | CC(C)Nc1c(C#N)nnc2ccc(-c3cn[nH]c3)cc12 [Compound 2-128, 4-(isopropylamino)-6-(1H-pyrazol-4-yl)cinnoline-3-carbonitrile] | 120
37 | CN(C)c1cccc(-c2ccc3c(N)c(C(N)=O)nnc3c2)c1 [Compound 1-8, 4-amino-7-(3-(dimethylamino)phenyl)cinnoline-3-carboxamide] | 250
38 | CC(C)Nc1c(C(N)=O)nnc2cc(-c3cccc(N4CCOCC4)c3)ccc12 [Compound 2-51, 4-(isopropylamino)-7-(3-morpholinophenyl)cinnoline-3-carboxamide] | 17
39 | CS(=O)(=O)c1ccc(-c2ccc3c(NC45CC6CC(CC(C6)C4)C5)c(C(N)=O)nnc3c2)cc1 [Compound 2-88, 4-(1-adamantylamino)-7-(4-(methylsulfonyl)phenyl)cinnoline-3-carboxamide] | 420
40 | C[C@@H](Nc1c(C(N)=O)nnc2cc(-c3cncc4ccccc34)ccc12)C1CC1 [Compound 2-105, (R)-4-(1-cyclopropylethylamino)-7-(isoquinolin-4-yl)cinnoline-3-carboxamide] | 380
